Like-named read-outs stand apart in the source and are kept apart here.
Key:
MYB = assay: HiBiT protein abundance assay, MYB HiBiT K562 cell line; type: cell-based, human; details: 24 hours, top dose 10 μM
Method in brief: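 K562 knock-in lines with endogenous HiBiT-tagged target, 10,000 cells/well in IMDM + FBS, treated 24 h at 37° C with 10-point 3-fold dilutions (top 10 μM final; DMSO ≤0.25%). Lytic Nano-Glo HiBiT luminescence normalized to untagged K562 baseline and DMSO controls; IC50 = concentration giving 50% abundance via four-parameter fit.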

MYB mRNA = assay: RT-qPCR splicing assay, MYB canonical junction (CJ) and alternative junction (AJ) mRNA; type: cell-based, human; details: Homo sapiens; for AC50: increase in MYB alternative junction (AJ) mRNA, read-out: MYB AJ AC50
Method in brief: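 A673 cells (normalized to PPIA) or K562 cells (normalized to GAPDH or GUSB) were treated 24 h at 37 °C with an 11-point 3-fold dilution series, top 10 uM, DMSO ≤0.25%. Cell lysates went to one-step RT-qPCR measuring canonical- and alternative-junction MYB or HTT transcripts.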

[1] = system: K562 (human chronic myelogenous leukemia) cells; assay: Cell Titer Glo 2.0 cell viability assay; type: cell-based; details: Homo sapiens, K562, 72 h, K562 cells, 72 hours, Cell Titer Glo 2.0; read-out: K562 GI50
[2] = canonical junction qPCR panel, Table 5, read-out: MYB (decrease in CJ mRNA levels, IC50)
[3] = decrease in MYB canonical junction (CJ) mRNA, RT-qPCR, read-out: MYB CJ IC50
[4] = HiBiT K562 cell line, read-out: Effect on protein abundance, MYB (IC50 category)
[5] = Table 5 panel, canonical junction qPCR, compound concentration having 50% response in CJ decrease, read-out: MYB IC50 (decrease in CJ mRNA levels)

Compound	IC50 (MYB; HiBiT lytic detection, modified K562 cells, read-out: Effect on protein abundance, MYB (IC50))	IC50 (MYB mRNA; [2])	IC50 (MYB mRNA; [3])	AC50 (MYB mRNA; RT-qPCR)	GI50 [1]	IC50 (MYB; [4])	IC50 (MYB mRNA; [5])
Cc1cn2nc(-c3ccc4c(=O)n(C5CC(C)N[C@H](C)C5)ncc4n3)cc(C)c2n1 (stereo in doubt) [Compound 1536, 2-(2,8-dimethylimidazo[1,2-b]pyridazin-6-yl)-6-[(2S,6R)-2,6-dimethyl-4-piperidyl]pyrido[2,3-d]pyridazin-5-one]	0.1 to 1 µM	0.1 to 1 µM	0.1 to 1 µM	0.1 to 1 µM	0.1 to 1 µM	–	–
Cc1cn2nc(-c3ccc4c(=O)n(C5C[C@@H](C)N[C@H](C)C5)ncc4n3)cc(C)c2n1 (stereo in doubt) [Compound 1537, 2-(2,8-dimethylimidazo[1,2-b]pyridazin-6-yl)-6-[(2R,6R)-2,6-dimethyl-4-piperidyl]pyrido[2,3-d]pyridazin-5-one]	–	0.1 to 1 µM	0.1 to 1 µM	0.1 to 1 µM	0.1 to 1 µM	0.1 to 1 µM	–
Cc1cn2nc(-c3ccc4c(=O)n([C@H]5CC(C)N[C@@H](C)C5)ncc4n3)cc(C)c2n1 (stereo in doubt) [Compound 1538, 2-(2,8-dimethylimidazo[1,2-b]pyridazin-6-yl)-6-[(2S,6S)-2,6-dimethyl-4-piperidyl]pyrido[2,3-d]pyridazin-5-one]	–	0.1 to 1 µM	0.1 to 1 µM	0.1 to 1 µM	0.1 to 1 µM	0.1 to 1 µM	–
Cc1cn2cc(-c3ccc4c(=O)n(C5CCNCC5)cnc4c3)cc(F)c2n1 [Compound 205]	–	–	0.1 to 1 µM	0.1 to 1 µM	0.1 to 1 µM	0.1 to 1 µM	0.1 to 1 µM
Cn1cc2cc(-c3ccc4c(=O)n(C5CCNCC5)cnc4c3)cc(F)c2n1 [Compound 206]	–	–	< 0.1 µM	0.1 to 1 µM	0.1 to 1 µM	0.1 to 1 µM	0.1 to 1 µM
Cc1cn2cc(-c3ccc4c(=O)n(C5CCN(C)CC5)cnc4c3)cc(F)c2n1 [Compound 207]	–	–	1 to 10 µM	1 to 10 µM	1 to 10 µM	1 to 10 µM	1 to 10 µM
CN1CCC(n2cnc3cc(-c4ccc5nn(C)cc5c4)ccc3c2=O)CC1 [Compound 208]	–	–	1 to 10 µM	1 to 10 µM	1 to 10 µM	1 to 10 µM	1 to 10 µM
CN1CCC(n2cnc3cc(-c4cc(F)c5nn(C)cc5c4)ccc3c2=O)CC1 [Compound 209]	–	–	0.1 to 1 µM	0.1 to 1 µM	1 to 10 µM	> 10 µM	0.1 to 1 µM
Cc1cn2cc(-c3ccc4c(=O)n(C5CCNCC5)cnc4c3F)cc(F)c2n1 [Compound 210]	–	–	1 to 10 µM	1 to 10 µM	0.1 to 1 µM	1 to 10 µM	1 to 10 µM
Cc1nc2c(F)cc(-c3ccc4c(c3)CCN(C3CCNCC3)C4=O)cc2o1 [Compound 215]	–	–	1 to 10 µM	1 to 10 µM	1 to 10 µM	0.1 to 1 µM	1 to 10 µM
Cc1cn2cc(-c3ccc4c(c3)CCN(C3CCNCC3)C4=O)cc(Cl)c2n1 [Compound 216, 6-[8-chloro-2-methylimidazo[1,2-a]pyridin-6-yl]-2-(piperidin-4-yl)-3,4-dihydroisoquinolin-1-one]	–	–	1 to 10 µM	0.1 to 1 µM	0.1 to 1 µM	0.1 to 1 µM	0.1 to 1 µM
Cc1cn2cc(-c3ccc4c(c3)CCN(C3CCNCC3)C4=O)cc(C)c2n1 [Compound 217, 6-[2,8-dimethylimidazo[1,2-a]pyridin-6-yl]-2-(piperidin-4-yl)-3,4-dihydroisoquinolin-1-one]	–	–	1 to 10 µM	1 to 10 µM	1 to 10 µM	0.1 to 1 µM	1 to 10 µM
Cc1cn2cc(-c3ccc4c(c3)CCN(C3CCNCC3)C4=O)c(C)cc2n1 [Compound 218, 6-[2,7-dimethylimidazo[1,2-a]pyridin-6-yl]-2-(piperidin-4-yl)-3,4-dihydroisoquinolin-1-one]	–	–	1 to 10 µM	1 to 10 µM	1 to 10 µM	1 to 10 µM	1 to 10 µM
Cc1cc(-c2ccc3c(c2)CCN(C2CCNCC2)C3=O)cc2cn(C)nc12 [Compound 219, 6-(2,7-dimethylindazol-5-yl)-2-(piperidin-4-yl)-3,4-dihydroisoquinolin-1-one]	–	–	0.1 to 1 µM	0.1 to 1 µM	1 to 10 µM	0.1 to 1 µM	0.1 to 1 µM
O=C1c2ccc(-c3cn[nH]c3)cc2CCN1C1CCNCC1 [Compound 220, 2-(piperidin-4-yl)-6-(1H-pyrazol-4-yl)-3,4-dihydroisoquinolin-1-one]	–	–	> 10 µM	> 10 µM	> 10 µM	> 10 µM	> 10 µM
Cc1cn2cc(-c3ccc4c(c3)CCN(C3CCNCC3)C4=O)nc2c(C)n1 [Compound 221, 6-[6,8-dimethylimidazo[1,2-a]pyrazin-2-yl]-2-(piperidin-4-yl)-3,4-dihydroisoquinolin-1-one]	–	–	> 10 µM	> 10 µM	1 to 10 µM	> 10 µM	> 10 µM
Cc1cn2nc(-c3ccc4c(c3)CCN(C3CCNCC3)C4=O)nc2c(C)n1 [Compound 222, 6-[6,8-dimethyl-[1,2,4]triazolo[1,5-a]pyrazin-2-yl]-2-(piperidin-4-yl)-3,4-dihydroisoquinolin-1-one]	–	–	1 to 10 µM	1 to 10 µM	1 to 10 µM	1 to 10 µM	1 to 10 µM
Cc1cn2nc(-c3ccc4c(c3)CCN(C3CCNCC3)C4=O)cc2c(C)n1 [Compound 223, 6-[4,6-dimethylpyrazolo[1,5-a]pyrazin-2-yl]-2-(piperidin-4-yl)-3,4-dihydroisoquinolin-1-one]	–	–	0.1 to 1 µM	0.1 to 1 µM	1 to 10 µM	1 to 10 µM	0.1 to 1 µM
Cc1cn2cc(-c3ccc4c(c3)CCN(C3CCNCC3)C4=O)ncc2n1 [Compound 224]	–	–	1 to 10 µM	> 10 µM	> 10 µM	> 10 µM	> 10 µM
Cn1cc2cc(-c3ccc4c(c3)CCN(C3CCNCC3)C4=O)cc(F)c2n1 [Compound 225]	–	–	> 10 µM	> 10 µM	1 to 10 µM	1 to 10 µM	> 10 µM
Cc1nc2c(F)cc(-c3ccc4c(c3)CCN(C3CCNCC3)C4=O)cc2s1 [Compound 226]	–	–	1 to 10 µM	1 to 10 µM	1 to 10 µM	1 to 10 µM	1 to 10 µM
Cc1cn2cc(-c3ccc4c(=O)n(C5CCN(C)CC5)cnc4c3F)cc(F)c2n1 [Compound 227]	–	–	1 to 10 µM	1 to 10 µM	1 to 10 µM	1 to 10 µM	1 to 10 µM
Cc1cn2cc(-n3cnc4cc(N5CCNCC5)ccc4c3=O)cc(F)c2n1 [Compound 228]	–	–	0.1 to 1 µM	0.1 to 1 µM	0.1 to 1 µM	0.1 to 1 µM	0.1 to 1 µM
Cc1cn2cc(-n3cnc4cc(N5CCN(C)CC5)ccc4c3=O)cc(F)c2n1 [Compound 229]	–	–	> 10 µM	> 10 µM	> 10 µM	> 10 µM	> 10 µM
Cc1cn2cc(-c3cc(F)c4c(=O)n(C5CCNCC5)cnc4c3)cc(F)c2n1 [Compound 230]	–	–	< 0.1 µM	< 0.1 µM	0.1 to 1 µM	< 0.1 µM	< 0.1 µM

From US20250332173A1, “COMPOUNDS AND METHODS FOR MODULATING NUCLEIC ACID SPLICING” (REMIX THERAPEUTICS INC., priority 2021, published 2025)
